{
  "source": "patent US10849840B2",
  "about": "“Compositions and methods for stimulation MAGP-1 to improve the appearance of skin” (New Avon LLC, priority 2010, dated 2020)",
  "system": "MAGP-1",
  "assay": "MAGP-1 screening method: MAGP-1 mRNA (RT-qPCR, normalized to GAPDH) in treated normal human dermal fibroblasts",
  "assay_type": "cell-based",
  "conditions": "48 hours treatment",
  "description": "Normal human dermal fibroblasts (Cascade Biologics) were cultured in 100 mm plates with 10 ml of DMEM with 10% serum and incubated for 24 hours at 37° C. and 10% CO2. After 24 hours, stock solutions of test compounds/plant extracts were made in appropriate solvents (e.g., DMSO). Cells were treated with test material or respective vehicle control diluted in growth medium for 48 hours in a humidified 37° C. incubator with 10% CO2. After incubation, growth medium from each plate was removed and 800 ul of TRIzol Reagent (Invitrogen) was added to the plates. Cell lysates were collected and placed in −80° C. freezer until RNA isolation and analysis.\nRNA was isolated by following the manufacturer's procedures. Briefly, the cell lysates were brought to room temperature. 0.2 ml of chloroform per 1 ml of TRIzol® Reagent was added. The tubes were shaken vigorously for 15 seconds and incubated at ambient temperature for 2 to 3 minutes. The samples were centrifuged at 12,000×g for 15 minutes at 2 to 8° C. Following centrifugation; the mixture separated into multiple phases, and RNA remains exclusively in the upper aqueous phase.\nThe aqueous phase was then transferred to a fresh tube. The RNA was precipitated from the aqueous phase by mixing with 0.5 ml of isopropyl alcohol per 1 ml of TRIzol® Reagent was used for the initial homogenization. Samples were incubated at 15 to 30° C. for 10 minutes and centrifuged at 12,000×g for 10 minutes at 2 to 8° C. […] The sample was mixed by vortexing and centrifuged at 7,500×g for 5 minutes at 2 to 8° C. The RNA pellet was briefly air dried. RNA was dissolved in RNase-free water, and the concentration of total RNA was determined by using Nanodrop (Thermo Scientific, DE).\nReverse Transcription (RT) reactions were conducted in a total volume of 20 μl. The RT mixture was prepared to contain 2 μl 10× TaqMan RT buffer, 4.4 μl 25 mM MgCl2, 4.0 μl dNTP mix, 1.0 μl Random Hexamer, 0.4 μl RNase Inhibitor, 0.5 μl MultiScribe Reverse Transcriptase (50 U/ml), 2.0 μg of RNA, and RNase-free water to make up the final volume of 20 μl. […] After the RT step, the reactions were stored at −20° C. for qPCR analysis.\nQuantitative Polymerase Chain Reaction (qPCR) was conducted in a total volume of 20 μl. Applied Biosystems (AB) Universal PCR master mix was used. The mixture was prepared to contain 10 μl of Taqman Universal PCR mix, 1 μl of primer and probe mix, 2 μl of RT product, and 7 μl of deionized water.\nThe temperature profiles for QPCR were 50° C. for 2 min, and 95° C. for 10 min for 1 cycle, then at 95° C. for 15 sec, and 60° C. for 1 min for 40 cycles. Values for MAGP-1 mRNA were collected along with those for the reference genes GAPDH.",
  "data": [
    {"compound": "O=C(O)CCSCCC(=O)O", "note": "[Thiodipropionic acid (TDPA), Thiodipropionic acid]", "values": [
      {"measurement": "Activity Level (percent increase in mRNA for MAGP-1 vs vehicle control)", "setting": "concentration 0.001%", "value": "++ (++: 41-60%)"}
    ]},
    {"compound": "Cc1cccc(Cc2nc3ccccc3n2CC(=O)N2CCOCC2)c1", "note": "[Compound of structure II, 2-{2-[(3-methylphenyl)methyl]-1H-1,3-benzodiazol-1-yl}1-(morpholin-4-yl)ethan-1-one]", "values": [
      {"measurement": "Activity Level (percent increase in mRNA for MAGP-1 vs vehicle control)", "setting": "concentration 0.01%", "value": "++++ (++++: >80%)"}
    ]},
    {"compound": "CC(C)CN(Cc1ccc(OS(C)(=O)=O)cc1)S(=O)(=O)c1ccccc1", "note": "[Compound of structure I, 4-((N-isobutylphenylsulfonamido)methyl)phenyl methanesulfonate]", "values": [
      {"measurement": "Activity Level (percent increase in mRNA for MAGP-1 vs vehicle control)", "setting": "concentration 0.01%", "value": "++++ (++++: >80%)"}
    ]},
    {"compound": "lysine-threonine-phenylalanine-lysine [KTFK]", "values": [
      {"measurement": "Activity Level (percent increase in mRNA for MAGP-1 vs vehicle control)", "setting": "concentration 0.001%", "value": "++++ (++++: >80%)"}
    ]}
  ]
}
